Laboratory results as given in patent US20140187475A1, “Lantibiotic Compositions and Methods For Preventing or Treating Mastitis” (Medela Holding AG, priority 2012, published 2014).

Tested on: bacteria
Assay: antimicrobial activity of nisin preparations placed on a skin or agar surface
Format: cell-based
Excerpt: Most important in this embodiment is the principle that nisin must be placed in the external aqueous phase of this preparation. […] In an ointment preparation, it is retained by the lipid phase and fails to dissipate and kill bacteria.

## Nisin
Nisin in an ointment preparation with little or no water
  antimicrobial activity: largely inactive
Nisin in the external aqueous phase of an oil in water emulsion, placed on a skin or agar surface
  antimicrobial activity: highly active
